# From US10925856B2, “Methods and compositions involving bucindolol for the treatment of atrial fibrillation” (priority 2018, dated 2021)
# Marks after values point to notes of the source that are not given here.
# Assays:
# [1] = in vivo; cited from earlier work
# plasma norepinephrine = test: Plasma norepinephrine (HPLC with electrochemical detection); conditions: for Norepinephrine, ΔWeek 12 Mean ± SEM / Norepinephrine, ΔWeek 12 Median / Norepinephrine, ΔWeek 24 Mean ± SEM / Norepinephrine, ΔWeek 24 Median: change from baseline
# [2] = Europe excluding Hungary (n = 48)
structure (smiles),measurement,setting,value
"CC(C)(Cc1c[nH]c2ccccc12)NCC(O)COc1ccccc1C#N (stereo not shown) [bucindolol, 2-(3-(1-(1H-indol-3-yl)-2-methylpropan-2-ylamino)-2-hydroxypropoxy)benzonitrile]",Bioavailability,[1],approximately 30%
same,"Plasma norepinephrine, Week 4 Mean",plasma norepinephrine; Canada,583 pg/mL
same,"Plasma norepinephrine, Week 4 Median",plasma norepinephrine; Canada,551 pg/mL
same,"Plasma norepinephrine, change from baseline to Week 4, Mean ±SEM",plasma norepinephrine; Canada,-59 pg/mL
same,"Plasma norepinephrine, change from baseline to Week 4, Median",plasma norepinephrine; Canada,-1 pg/mL
same,"Norepinephrine, Baseline Mean ± SD",plasma norepinephrine; Canada (n = 59),642 ± 341 pg/mL
same,"Norepinephrine, Baseline Median",plasma norepinephrine; Canada (n = 59),522 pg/mL
same,"Norepinephrine, Week 12 Mean ± SD",plasma norepinephrine; Canada (n = 59),528 ± 252 pg/mL
same,"Norepinephrine, Week 12 Median",plasma norepinephrine; Canada (n = 59),484 pg/mL
same,"Norepinephrine, Week 24 Mean ± SD",plasma norepinephrine; Canada (n = 59),623 ± 276 pg/mL
same,"Norepinephrine, Week 24 Median",plasma norepinephrine; Canada (n = 59),564 pg/mL
same,"Change in NE at Week 4, median (Q1, Q3)",plasma norepinephrine; Entire Cohort,"−101 (−241, 43)* pg/ml"
same,"Plasma norepinephrine, Week 4 Mean",plasma norepinephrine; Entire Cohort,563 pg/mL
same,"Plasma norepinephrine, Week 4 Median",plasma norepinephrine; Entire Cohort,500 pg/mL
same,"Plasma norepinephrine, change from baseline to Week 4, Mean ±SEM",plasma norepinephrine; Entire Cohort,-124 ± 26 pg/mL
same,"Plasma norepinephrine, change from baseline to Week 4, Median",plasma norepinephrine; Entire Cohort,-101 pg/mL
same,"Norepinephrine, Baseline Mean ± SD",plasma norepinephrine; Entire Cohort (n = 267),682 ± 349 pg/mL
same,"Norepinephrine, Baseline Median",plasma norepinephrine; Entire Cohort (n = 267),607 pg/mL
same,"Norepinephrine, Week 12 Mean ± SD",plasma norepinephrine; Entire Cohort (n = 267),570 ± 275 pg/mL
same,"Norepinephrine, Week 12 Median",plasma norepinephrine; Entire Cohort (n = 267),520 pg/mL
same,"Norepinephrine, Week 24 Mean ± SD",plasma norepinephrine; Entire Cohort (n = 267),631 ± 329 pg/mL
same,"Norepinephrine, Week 24 Median",plasma norepinephrine; Entire Cohort (n = 267),545 pg/mL
same,"Plasma norepinephrine, change from baseline to Week 4, Mean ±SEM","plasma norepinephrine; Entire Cohort, listed as Buc",-124 pg/mL
same,"Plasma norepinephrine, Week 4 Mean",plasma norepinephrine; Europe excluding Hungary,604 pg/mL
same,"Plasma norepinephrine, Week 4 Median",plasma norepinephrine; Europe excluding Hungary,540 pg/mL
same,"Plasma norepinephrine, change from baseline to Week 4, Mean ±SEM",plasma norepinephrine; Europe excluding Hungary,-126 pg/mL
same,"Plasma norepinephrine, change from baseline to Week 4, Median",plasma norepinephrine; Europe excluding Hungary,-129 pg/mL
same,"Norepinephrine, Baseline Mean ± SD",plasma norepinephrine; [2],753 ± 375 pg/mL
same,"Norepinephrine, Baseline Median",plasma norepinephrine; [2],691 pg/mL
same,"Norepinephrine, Week 12 Mean ± SD",plasma norepinephrine; [2],683 ± 318 pg/mL
same,"Norepinephrine, Week 12 Median",plasma norepinephrine; [2],611 pg/mL
same,"Norepinephrine, Week 24 Mean ± SD",plasma norepinephrine; [2],798 ± 459 pg/mL
same,"Norepinephrine, Week 24 Median",plasma norepinephrine; [2],729 pg/mL
same,"Plasma norepinephrine, Week 4 Mean",plasma norepinephrine; Hungary,576 pg/mL
same,"Plasma norepinephrine, Week 4 Median",plasma norepinephrine; Hungary,525 pg/mL
same,"Plasma norepinephrine, change from baseline to Week 4, Mean ±SEM",plasma norepinephrine; Hungary,-208 pg/mL
same,"Plasma norepinephrine, change from baseline to Week 4, Median",plasma norepinephrine; Hungary,−213* pg/ml
same,"Norepinephrine, Baseline Mean ± SD",plasma norepinephrine; Hungary (n = 33),767 ± 270 pg/mL
same,"Norepinephrine, Baseline Median",plasma norepinephrine; Hungary (n = 33),792 pg/mL
same,"Norepinephrine, Week 12 Mean ± SD",plasma norepinephrine; Hungary (n = 33),638 ± 254 pg/mL
same,"Norepinephrine, Week 12 Median",plasma norepinephrine; Hungary (n = 33),690 pg/mL
same,"Norepinephrine, Week 24 Mean ± SD",plasma norepinephrine; Hungary (n = 33),711 ± 267 pg/mL
same,"Norepinephrine, Week 24 Median",plasma norepinephrine; Hungary (n = 33),736 pg/mL
same,"Plasma norepinephrine, Week 4 Mean",plasma norepinephrine; U.S.,529 pg/mL
same,"Plasma norepinephrine, Week 4 Median",plasma norepinephrine; U.S.,473 pg/mL
same,"Plasma norepinephrine, change from baseline to Week 4, Mean ±SEM",plasma norepinephrine; U.S.,-136 pg/mL
same,"Plasma norepinephrine, change from baseline to Week 4, Median",plasma norepinephrine; U.S.,-101 pg/mL
same,"Norepinephrine, Baseline Mean ± SD",plasma norepinephrine; U.S. (n = 127),650 ± 362 pg/mL
same,"Norepinephrine, Baseline Median",plasma norepinephrine; U.S. (n = 127),598 pg/mL
same,"Norepinephrine, Week 12 Mean ± SD",plasma norepinephrine; U.S. (n = 127),529 ± 267 pg/mL
same,"Norepinephrine, Week 12 Median",plasma norepinephrine; U.S. (n = 127),466 pg/mL
same,"Norepinephrine, Week 24 Mean ± SD",plasma norepinephrine; U.S. (n = 127),585 ± 336 pg/mL
same,"Norepinephrine, Week 24 Median",plasma norepinephrine; U.S. (n = 127),498 pg/mL
same,Degree of reduction in NE by median values,"plasma norepinephrine; Week 4, Hungary",213 pg/mL
same,Degree of reduction in NE by median values,"plasma norepinephrine; Week 4, U.S.",101 pg/mL
same,Degree of reduction in NE by median values,"plasma norepinephrine; Week 4, rest of Europe",121 pg/mL
same,Reduction in NE,"plasma norepinephrine; Week 12, Canada",100 pg/mL
same,Reduction in NE,"plasma norepinephrine; Week 24, Canada",21 pg/mL
same,Reduction in NE,"plasma norepinephrine; Week 24, Hungary",193 pg/mL
same,Reduction in NE,"plasma norepinephrine; Week 24, U.S.",46 pg/mL
same,"Norepinephrine, ΔWeek 12 Mean ± SEM",plasma norepinephrine; Canada (n = 59),-133 ± 48 pg/mL
same,"Norepinephrine, ΔWeek 12 Median",plasma norepinephrine; Canada (n = 59),-100 pg/mL
same,"Norepinephrine, ΔWeek 24 Mean ± SEM",plasma norepinephrine; Canada (n = 59),-38 ± 54 pg/mL
same,"Norepinephrine, ΔWeek 24 Median",plasma norepinephrine; Canada (n = 59),-21 pg/mL
same,"Norepinephrine, ΔWeek 12 Mean ± SEM",plasma norepinephrine; Entire Cohort (n = 267),-118 ± 27 pg/mL
same,"Norepinephrine, ΔWeek 12 Median",plasma norepinephrine; Entire Cohort (n = 267),-100 pg/mL
same,"Norepinephrine, ΔWeek 24 Mean ± SEM",plasma norepinephrine; Entire Cohort (n = 267),-64 ± 31 pg/mL
same,"Norepinephrine, ΔWeek 24 Median",plasma norepinephrine; Entire Cohort (n = 267),-47 pg/mL
same,"Norepinephrine, ΔWeek 12 Mean ± SEM",plasma norepinephrine; [2],-34 ± 51 pg/mL
same,"Norepinephrine, ΔWeek 12 Median",plasma norepinephrine; [2],-55 pg/mL
same,"Norepinephrine, ΔWeek 24 Mean ± SEM",plasma norepinephrine; [2],56 ± 152 pg/mL
same,"Norepinephrine, ΔWeek 24 Median",plasma norepinephrine; [2],-82 pg/mL
same,"Norepinephrine, ΔWeek 12 Mean ± SEM",plasma norepinephrine; Hungary (n = 33),-172 ± 63 pg/mL
same,"Norepinephrine, ΔWeek 12 Median",plasma norepinephrine; Hungary (n = 33),-171 pg/mL
same,"Norepinephrine, ΔWeek 24 Mean ± SEM",plasma norepinephrine; Hungary (n = 33),-132 ± 296 pg/mL
same,"Norepinephrine, ΔWeek 24 Median",plasma norepinephrine; Hungary (n = 33),-193 pg/mL
same,"Norepinephrine, ΔWeek 12 Mean ± SEM",plasma norepinephrine; U.S. (n = 127),-128 ± 49 pg/mL
same,"Norepinephrine, ΔWeek 12 Median",plasma norepinephrine; U.S. (n = 127),-86 pg/mL
same,"Norepinephrine, ΔWeek 24 Mean ± SEM",plasma norepinephrine; U.S. (n = 127),-86 ± 40 pg/mL
same,"Norepinephrine, ΔWeek 24 Median",plasma norepinephrine; U.S. (n = 127),-46 pg/mL
same,Degree of reduction in NE by median values,"plasma norepinephrine; week 4, entire cohort",101 pg/mL
same,Reduction in NE,"plasma norepinephrine; week 24, entire cohort",47 pg/mL
